Values belong to the compound of their own block, whether it stands above or below them. Activity calls are given as the source filed them.
How the values were obtained:
[1] = HEp-2 cell cytotoxicity, dose response, cytotoxicity control for RSV inhibitor project, HTS (AID 2410); assay type: functional; settings: human respiratory syncytial virus
[2] = ADAM10 protease inhibitors, dose response, selectivity assay for ADAM17 exosite inhibitor project, biochemical, FRET peptide substrate, recombinant human ADAM10 (AID 743259);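 note: ADAM10 enzyme cleaving a FRET peptide substrate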
[3] = biological target: Disintegrin and metalloproteinase domain-containing protein 17 (Homo sapiens, UniProt P78536); assay: exosite inhibitors of ADAM17, dose response, biochemical (AID 743260)
Sequence of Disintegrin and metalloproteinase domain-containing protein 17 (P78536 whole entry, the tested form may be a part): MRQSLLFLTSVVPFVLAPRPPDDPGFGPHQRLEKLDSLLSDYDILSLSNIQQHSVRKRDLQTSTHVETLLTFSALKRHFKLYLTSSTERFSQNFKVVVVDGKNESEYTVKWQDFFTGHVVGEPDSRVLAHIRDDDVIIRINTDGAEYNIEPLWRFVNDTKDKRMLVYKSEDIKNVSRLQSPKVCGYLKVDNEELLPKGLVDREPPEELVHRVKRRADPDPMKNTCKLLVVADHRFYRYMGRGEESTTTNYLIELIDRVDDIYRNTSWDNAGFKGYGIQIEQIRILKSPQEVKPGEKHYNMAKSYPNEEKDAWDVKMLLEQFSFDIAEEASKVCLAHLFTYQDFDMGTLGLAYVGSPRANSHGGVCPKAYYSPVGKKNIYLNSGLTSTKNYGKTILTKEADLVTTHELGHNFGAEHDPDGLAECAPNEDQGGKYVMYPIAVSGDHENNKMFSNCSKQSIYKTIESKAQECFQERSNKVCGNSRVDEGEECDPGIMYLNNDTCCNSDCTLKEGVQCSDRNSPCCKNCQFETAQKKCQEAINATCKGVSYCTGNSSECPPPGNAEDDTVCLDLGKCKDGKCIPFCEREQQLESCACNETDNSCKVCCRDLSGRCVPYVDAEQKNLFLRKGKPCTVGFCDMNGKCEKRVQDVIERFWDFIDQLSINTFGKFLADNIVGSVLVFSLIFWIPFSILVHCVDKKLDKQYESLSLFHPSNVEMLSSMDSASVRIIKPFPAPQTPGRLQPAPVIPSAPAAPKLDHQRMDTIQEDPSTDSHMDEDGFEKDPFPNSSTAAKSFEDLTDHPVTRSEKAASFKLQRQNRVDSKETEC

Prothrombin = Prothrombin (Homo sapiens, UniProt P00734); assay: Thrombin 1536 HTS Dose Response Confirmation. [Related pubchem assays: 1046 (Thrombin 1536 HTS; hits were confirmed in this assay)]; assay type: functional
[4] = biological target: T1, Heat shock factor protein 1 (Mus musculus, UniProt P38532); assay: inhibition of MG132-induced HSE-luciferase signal, confirmation, cell-based, NIH3T3, luminescence, dose retest (AID 2382); assay type: functional;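 note: NIH3T3 fibroblasts with HSF1-driven luciferase reporter stressed by proteasome inhibitor MG132; luminescence from HSF1-driven luciferase expression after 8 hours of MG132 stress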
T1 sequence (P38532 whole entry): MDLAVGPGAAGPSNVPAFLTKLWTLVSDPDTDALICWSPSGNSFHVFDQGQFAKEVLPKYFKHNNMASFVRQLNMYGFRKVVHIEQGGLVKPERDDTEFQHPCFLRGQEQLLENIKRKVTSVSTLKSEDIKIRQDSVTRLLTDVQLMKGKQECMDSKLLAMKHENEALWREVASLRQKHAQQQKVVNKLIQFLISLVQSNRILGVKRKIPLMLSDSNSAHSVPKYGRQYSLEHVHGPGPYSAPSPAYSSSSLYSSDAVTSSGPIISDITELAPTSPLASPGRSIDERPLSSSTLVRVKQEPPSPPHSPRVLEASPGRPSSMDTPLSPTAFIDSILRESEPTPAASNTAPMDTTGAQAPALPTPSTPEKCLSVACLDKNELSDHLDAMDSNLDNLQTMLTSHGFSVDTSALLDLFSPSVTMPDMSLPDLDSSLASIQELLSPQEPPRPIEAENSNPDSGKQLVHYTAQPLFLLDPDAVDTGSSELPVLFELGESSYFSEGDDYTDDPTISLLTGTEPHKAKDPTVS

[5] = LGR2 antagonists, dose response, cell-based, HEK293, CRE-luciferase reporter, cherry pick, set 2 (AID 743343); assay type: functional;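 note: transfected cells were stimulated with diluted bursicon conditioned medium after compound addition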
[6] = A549 cell cytotoxicity, dose response, cytotoxicity control, plate reader, cherry-pick, antagonist series (AID 743412); assay type: functional, cell-based
[7] = MC4R antagonists, dose response, counter-screen for LGR2 antagonist project, cell-based, plate reader, cherry pick (AID 743444); assay type: functional;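 note: transfected HEK 293 cells stimulated with alpha-MSH peptide; potency of inhibitors of the alpha-MSH evoked signal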
H9c2 = assay: cells; assay type: functional, cell-based; settings: Rattus norvegicus, H9c2, Myocardium;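 note: confirmatory concentration-response retest of ultra-high-throughput screening hits for modulation of myocardial damage; cell death induced by hydrogen peroxide oxidative stress; compound pretreatment for 60 min then peroxide exposure for 2 h; potency is for protecting the cells against peroxide damage rather than for killing them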
[8] = biological target: T2, Methionyl-tRNA synthetase, putative (Trypanosoma brucei brucei, UniProt Q38C91); assay type: functional, Trypanosoma brucei brucei strain 927/4 GUTat10.1
T2 sequence (Q38C91 whole entry): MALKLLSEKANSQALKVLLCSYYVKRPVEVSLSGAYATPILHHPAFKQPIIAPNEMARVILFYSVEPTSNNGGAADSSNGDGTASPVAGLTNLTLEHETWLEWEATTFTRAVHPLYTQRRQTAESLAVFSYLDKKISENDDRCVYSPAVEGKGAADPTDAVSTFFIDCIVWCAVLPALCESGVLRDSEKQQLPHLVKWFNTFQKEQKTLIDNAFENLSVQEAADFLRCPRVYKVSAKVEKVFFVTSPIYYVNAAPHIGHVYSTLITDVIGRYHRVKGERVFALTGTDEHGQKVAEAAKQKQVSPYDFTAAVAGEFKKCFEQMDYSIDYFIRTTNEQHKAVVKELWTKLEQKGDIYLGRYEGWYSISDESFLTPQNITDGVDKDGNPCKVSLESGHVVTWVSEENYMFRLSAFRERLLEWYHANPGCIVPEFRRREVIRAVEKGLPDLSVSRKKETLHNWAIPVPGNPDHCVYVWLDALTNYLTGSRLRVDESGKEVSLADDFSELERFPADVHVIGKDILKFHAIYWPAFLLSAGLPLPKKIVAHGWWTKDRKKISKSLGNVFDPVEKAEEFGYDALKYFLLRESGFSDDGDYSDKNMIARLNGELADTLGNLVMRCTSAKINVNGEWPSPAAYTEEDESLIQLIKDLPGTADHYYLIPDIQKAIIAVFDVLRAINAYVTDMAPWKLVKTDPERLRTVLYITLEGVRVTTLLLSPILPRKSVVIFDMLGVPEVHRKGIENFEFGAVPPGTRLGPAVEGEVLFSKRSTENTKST

[9] = Counterscreen for inhibitors of Trypanosoma brucei methionyl tRNA synthetase (MetRS): Luminescence-based cell-based high throughput dose response assay to identify compounds that are cytotoxic to Jurkat human T lymphocyte cells.; assay type: functional
[10] = biological target: T2, Methionyl-tRNA synthetase, putative; assay type: functional, Trypanosoma brucei brucei strain 927/4 GUTat10.1; remark: listed apart in the source

SMILES: COC(=O)c1ccc(Cn2c(CN3CCOCC3)nc3ccccc3c2=O)o1
- IC50 (cells): 17.4 µM (active)

SMILES: Cc1ccc(S(=O)(=O)N2CCN(CCO)CC2)cc1-c1nnc2c3ccccc3c(C)nn12
- IC50 (cells): > 50 µM (active)

SMILES: COc1ccccc1-n1c(C)cc(/C=C2\C(=N)N3N=C(CC(=O)N4CCOCC4)SC3=NC2=O)c1C
- CC50 [1]: 38.3 µM (active)
- IC50 (cells): 24.1 µM (active)

- IC50 [3]: > 69.5 µM (inactive)
SMILES: O=C(COC(=O)c1cccc(NS(=O)(=O)/C=C/c2ccccc2)c1)Nc1ccccc1OC(F)F
- IC50 [2]: 36 µM (inactive)

- IC50 (Prothrombin): > 50 µM (not active)
SMILES: Cc1nn(C)cc1CN1CCC(CO)(CCOc2ccccc2)CC1

- IC50 [3]: > 69.5 µM (inactive)
SMILES: Cc1csc(-c2cnn(-c3ccccc3)c2NC(=O)c2ccc(C(F)(F)F)cc2)n1
- IC50 [2]: 24.7 µM (inactive)

- IC50 (Prothrombin): > 50 µM (not active)
- EC50 [4]: > 195 µM (not active)
SMILES: O=C(COc1ccccc1C(=O)O)Nc1ccc(SC(F)F)cc1

SMILES: Cc1ccc(C)c(S(=O)(=O)N(C(=O)c2ccncc2)c2ccc(OC(=O)c3ccncc3)cc2)c1
- AC50 [5]: 4.05 µM (active)
- AC50 [6]: > 52 µM (inactive)
- AC50 [7]: 1.9 µM (active)
- IC50 (H9c2): > 79 µM (inactive)

SMILES: Cc1cc(C)c2c(-n3cccc3)c(C(=O)NNS(=O)(=O)c3ccc(Cl)cc3)sc2n1
- CC50 [1]: 37.1 µM (active)
- IC50 (cells): 40.2 µM (active)

- IC50 (Prothrombin): > 50 µM (not active)
SMILES: CC(C)Oc1ccc(N2CC(C(=O)NC3=NCCS3)CC2=O)cc1 (stereo unspecified)

SMILES: COC(=O)c1sc(-c2ccc(Cl)cc2)cc1NC(=O)CSCC(=O)O
- IC50 [8]: 18.2 µM (inactive)
- IC50 [9]: 83.3 µM (inactive)
- IC50 [10]: 22.5 µM (inactive)
